“Also recorded” adds a separate entry of the source. Like-named read-outs stand apart in the source and are kept apart here. Where no end group is shown, it is not given here.
Columns and labels:
[1] = test system: AlexaFluor 488-plasma fibronectin (A488-FN); experiment: Microtiter exogenous plasma fibronectin matrix assembly assay (AH1F fibroblasts); assay type: cell-based, human; settings: for inhibition of fibronectin fibrillogenesis: concentrations up to 20 μM
Procedure: Microtiter fibronectin matrix assembly assays: Exogenous plasma fibronectin matrix assembly assay: Binding and incorporation of AlexaFluor® 488-plasma fibronectin (A488-FN) to fibroblast monolayers (human foreskin fibroblasts, AH1F cells was carried out using methods known in the art. Briefly, fibroblasts (60000 per well) were allowed to adhere and spread for 2 hours in microtiter plates in 2% fetal calf serum (FCS)-containing DMEM. Peptides or modulators to be tested were added followed by 28 nM A488-FN. Cell monolayers with or without peptides and A488FN were incubated overnight at 37° C. with 5% CO2. Cell monolayers in microwells were washed with PBS or HBSS containing Ca^2+, Mg^2+. Fluorescence in 96-well plates was read using a microplate reader using bottom-readout capabilities at 485 nm excitation and 525 nm emission with 20 nm bandwidths. To estimate cell viability per well after the washes and measurement of fluorescence, an equal volume of luminescence reagent (Cell Titer-Glo®) was added followed by quantification of luminescence. Fluorescence of wells to which A488FN had not been added, i.e. intrinsic fluorescence of the cell monolayer was subtracted from fluorescence values of wells containing ligand. Data is presented respectively for fibronectin fibrillogenesis or cell viability as percent of fluorescence or luminescence values for wells with no peptides. Microplate microscopy was used to ascertain that fluorescence measurements correspond to fibrillary fibronectin.
To determine whether PEG-FUD retained its ability to inhibit fibronectin fibrillogenesis, PEG-FUD and FUD were compared in cell-based fibronectin matrix assembly assays. The ability of PEG-FUD to inhibit the incorporation of exogenous fibronectin derived from plasma and also of fibronectin endogenously produced by the cultured cells was measured, since fibrosis is likely to contain fibronectin from both sources. Shown in FIG. 12 is the level of fibrils formed from exogenously added A488-FN fibrils in the presence of increasing amounts FUD or PEG-FUD. FIGS. 13 and 14 show endogenous EDA+-fibronectin fibrillogenesis in human fibroblast and human proximal tubular epithelial cells, respectively. In all fluorescence panels, it is evident that PEG-FUD is as efficient as FUD at inhibiting fibronectin assembly dose-dependently with an IC50 of approximately 30 nM. As previously reported, cell viability is negligibly affected by FUD, and PEG-FUD behaves almost identically. There was an approximately 20% decrease in fibroblast viability at the highest concentration of FUD tested (500 nM) with PEG-FUD retaining fibroblast viability almost at 100%. […] Human proximal tubular epithelial cell viability was retained at approximately 100% with treatment by both FUD and PEG-FUD.
Having established the suitability of PEG-FUD as inhibitor of FN fibrillogenesis, a mutated form of FUD, mFUD, was tested as a control peptide. mFUD was PEGylated as described above and the conjugate tested in the exogenous A488-FN binding assay as described for FIG. 1A. […] A maximum concentration of 20 μM was tested because it approximates the concentration used in vivo, both in this study and in the liver fibrosis study.

human plasma FN = experiment: Isothermal Titration calorimetry (ITC) of peptide binding to fibronectin; settings: pH 7.4 PBS, 25° C., triplicate
Chain of human plasma FN (P02751 32-608 limits assumed): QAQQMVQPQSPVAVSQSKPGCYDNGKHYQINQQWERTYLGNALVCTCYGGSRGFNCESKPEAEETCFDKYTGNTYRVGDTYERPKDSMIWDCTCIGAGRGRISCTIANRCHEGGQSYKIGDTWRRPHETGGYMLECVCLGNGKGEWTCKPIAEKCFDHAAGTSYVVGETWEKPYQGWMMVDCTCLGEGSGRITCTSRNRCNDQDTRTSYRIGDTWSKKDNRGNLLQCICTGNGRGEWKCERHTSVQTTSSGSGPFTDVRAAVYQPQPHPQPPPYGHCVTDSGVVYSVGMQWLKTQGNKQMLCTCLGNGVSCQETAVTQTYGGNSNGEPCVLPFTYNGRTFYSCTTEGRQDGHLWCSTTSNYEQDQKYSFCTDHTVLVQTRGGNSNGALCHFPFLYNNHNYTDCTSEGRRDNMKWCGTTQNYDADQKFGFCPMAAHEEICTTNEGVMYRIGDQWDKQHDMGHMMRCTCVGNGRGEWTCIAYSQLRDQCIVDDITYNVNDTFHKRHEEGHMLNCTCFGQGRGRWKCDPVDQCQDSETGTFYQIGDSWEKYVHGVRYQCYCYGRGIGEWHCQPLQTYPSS
Procedure: Isothermal Titration calorimetry (ITC): ITC experiments were performed using a VP-ITC microcalorimeter (MicroCal, LLC) with a cell volume of 2.2 mL. In a typical experiment, the cell was filled with 1.4 mL of 2 μM human plasma FN and the syringe was filled with 1 mL of 28 μM FUD or PEG-FUD peptides. The temperature was set to 25° C. The titration experiment was performed in 39 injections (1×1, 4×4, and 34×8 μL) delivered in 120 sec intervals. Prior to injection, both FN and the peptides were dialyzed in separate dialysis bags overnight into the same PBS buffer (pH 7.4) solution. Routine analysis involved discarding of the first data point and subtraction of peptide into PBS buffer control run. Data were fit using one set of sites model Lavenberg-Marquardt nonlinear regression in Origin 7.0.
The binding of 10 kDa, 20 kDa, and 40 kDa PEG-FUD to FN was studied using Isothermal Titration calorimetry (ITC). This technique was used to determine the thermodynamic parameters as well as the binding constant (Kd) of the interaction. The peptide was injected into a human plasma FN solution in PBS at pH 7.4 and 25° C. in triplicate runs. […] A Kd of 6 (±3) nM was detected for FUD:FN. […] Similar entropy change of −65 (±3) cal/mol, −74 (±7) cal/mol, −66 (±7) cal/mol, and −73 (±2) and enthalpy change of −31 (±1) kcal/mol, −34 (±2) kcal/mol, −30 (±1) kcal/mol, and −32.5 (±0.5) kcal/mol were detected for the interaction of FUD and 10 kDa, 20 kDa, and 40 kDa PEG-FUD with FN, respectively. […] This observation is contrary to the expectation of PEG attachment diminishing a drug's affinity for its binding partner and presents an unexpected but desired feature of the PEG-FUD peptide.

UUO kidneys = experiment: Unilateral Ureteral Obstruction (UUO) model of kidney fibrosis; assay type: in vivo, mouse; settings: for decrease in CD45 staining (leukocyte infiltration) / decrease in collagens (picrosirius red birefringence): UUO kidney sections; for decrease of fibronectin deposition (immunohistochemistry): UUO kidneys, s.c. 0.3 mg per day, day 3 to day 9, vs saline; for qualitative H&E histology of UUO kidneys: compared to saline
Description: Unilateral Ureteral Obstruction model. […] All efforts were made to minimize suffering. […] PEGylated peptide equivalent amounts were based on peptide concentration.
Thus, the right, contralateral, kidney of each mouse was utilized as a control to the left UUO-treated kidney. The data from two cohorts of UUO-treated mice were combined for this study composed of the following groups (n): saline (n=5), PEG (n=4), FUD (n=5), PEG-FUD (n=8) and PEG-mFUD (n=3).
Histology and immunostaining: Paraffin-embedded tissues were sectioned at 4 μm and stained with H&E and Picrosirius Red, and IHC for fibronectin and CD45 for leukocytes. […] Staining for fibronectin was carried out using a rabbit polyclonal antibody to mouse fibronectin (RamFN) which was described in the art. RamFN diluted at 1:5000 required prior proteinase K antigen retrieval and was developed with ImmPRESS Rabbit Ig HRP. Staining for leukocytes was carried out using the pan leukocyte antibody rat anti-mouse CD45 (Leukocyte Common antigen, Ly-5, BD Pharmingen, clone 30-F11) at 1:100 after citrate pH 6.0 antigen retrieval and developed with ImmPRESS rat Ig HRP. RamFN and CD45 staining was counter stained with hematoxylin to demarcate nuclei.
Stained tissue sections were imaged using the 20× objective on an upright brightfield Nikon Eclipse 600 microscope. This microscope was also equipped with polarizer capabilities utilized to assess the birefringence of the picrosirius red-stained collagen fibers. Quantitation of birefringence or DAB product following development of HRP stains was carried out using Image J (Sun Microsystems.Ink) from 6 images from each mouse section obtained at random within the central cortical area and excluding large blood vessels and the kidney capsule.

[2] = exogenous A488-FN, doses up to 20 μM, read-out: IC50 of fibrillogenesis inhibition
[3] = exogenous A488-plasma fibronectin, human fibroblasts, doses up to 500 nM, read-out: IC50 of fibronectin assembly inhibition

Chain of AlexaFluor 488-plasma fibronectin (A488-FN) (P02751 32-608 limits assumed): as above

Row | Substance | inhibition of assembly of plasma fibronectin by fibroblasts ([1]; doses up to 500 nM) | inhibition of fibronectin fibrillogenesis ([1]; exogenous A488-FN) | IC50 [1, 2] | IC50 [1, 3] | Kd (human plasma FN) | decrease in CD45 staining (leukocyte infiltration) (UUO kidneys) | decrease in collagens (picrosirius red birefringence) (UUO kidneys) | decrease of fibronectin deposition (immunohistochemistry) (UUO kidneys) | qualitative H&E histology of UUO kidneys (UUO kidneys)
1 | FUD: 49 amino acid FUD peptide, SEQ ID NO: 1, recombinantly expressed, His-tag removed; inhibitor of fibronectin fibrillogenesis (KDQSPLAGESGETEYITEVYGNQQNPVDIDKKLPNETGFSGNMVETEDT; human) [reference compound] | 70% | 60% | 25 to 30 nM | ~30 nM | 6 nM | approximately 50% | about 50% | 40% | greater eosinophilic staining
2 | PEG-FUD: PEGylated FUD prepared as in Example 1, PEG size not stated; approximately 27 kDa by mass spectrometry, likely the 20 kDa conjugate (KDQSPLAGESGETEYITEVYGNQQNPVDIDKKLPNETGFSGNMVETEDT; not fully specified (N-terminus); also: PEG size not given here) | 70% | 60% | 25 to 30 nM | ~30 nM | ~10 nM | approximately 50% | about 50% | 70% | greater eosinophilic staining; also recorded: clearer tubular preservation and vascularized glomeruli
